How the values were obtained:
[1] = octanol/water partition coefficient

CN(CCCCC[C@@H]1Cc2cc(O)ccc2[C@@H]2[C@@H]1[C@@H]1CC[C@H](O)[C@@]1(C)C[C@@H]2F)CCCSCCCC(F)(F)C(F)(F)F [antiestrogen 1, 11β-fluoro-7α-{5-[N-methyl-N-3-(4,4,5,5,5-pentafluoropentylthio)propylamino]pentyl}estra-1,3,5(10)-triene-3,17β-diol]
logP (physchem): 5.8

CN(CCCCCCC(F)(F)C(F)(F)C(F)(F)C(F)(F)F)CCCCC[C@@H]1Cc2cc(O)ccc2[C@@H]2[C@@H]1[C@@H]1CC[C@H](O)[C@@]1(C)C[C@@H]2F [antiestrogen 2, 11β-fluoro-7α-{5-[methyl-(7,7,8,8,9,9,10,10,10-nonafluorodecyl)amino]pentyl}estra-1,3,5(10)-triene-3,17β-diol]
logP [1]: 7.8

— patent US20030157155A1, “Compositions for use as penetration promoters in transdermal formulations for highly lipophilic active ingredients” (priority 2000, published 2003)
